Molecules are shown by their SMILES.

This experiment addresses T1, recombinant human Syk (GST-hSyk fusion protein) (Homo sapiens, UniProt P43405).
T1 construct: purchased Carna Biosciences 08-176
Briefly: Homogeneous Time-Resolved Fluorescence (HTRF) assay for the recombinant human Syk enzyme. In kind it is biochemical. The conditions noted are these: IC50 class; 10-dose titration, 25 μM ATP; read-out: rhSYK Activity. Put shortly: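 GST-hSyk (5 pM) preincubated 10 min with compound (0.1% DMSO) in 15 mM Tris-HCl pH 7.5, 2 mM DTT; reaction started with 250 nM biotinylated peptide, 5 mM Mg, 25 μM ATP, 45 min, room temperature. EDTA quench, Eu-anti-phosphotyrosine/SA-APC HTRF read after 30 min; IC50 from 10-dose titration (10 μM–0.508 nM), four-parameter fit.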
In general terms: In TR-FRET formats the signal depends on donor and acceptor labels being close together.
For the molecule `Cc1cc(Nc2nccc(C(F)(F)F)n2)cc(-c2cc[nH]n2)c1` [Example 1.7, N-[3-methyl-5-(1H-pyrazol-3-yl)phenyl]-4-(trifluoromethyl)pyrimidin-2-amine], the IC50 was at most 100 nM.

Consider `Cc1cc(Nc2nccc(C(F)(F)F)n2)cc(-c2ccnn2C(C)C)c1` [Example 1.8, N-{3-methyl-5-[1-(1-methylethyl)-1H-pyrazol-5-yl]phenyl}-4-(trifluoromethyl)pyrimidin-2-amine], for which the IC50 lay within 100 to 1000 nM.

With `Cc1cc(Nc2nccc(C(F)(F)F)n2)cc(-c2ccnn2C)c1` [Example 1.9, N-[3-methyl-5-(1-methyl-1H-pyrazol-5-yl)phenyl]-4-(trifluoromethyl)pyrimidin-2-amine], the IC50 lay in the range of 100 to 1000 nM.

With `Cc1cc(Nc2nccc(C(F)(F)F)n2)cc(-c2cc(C(F)(F)F)nn2C)c1` [Example 1.10, N-{3-methyl-5-[1-methyl-3-(trifluoromethyl)-1H-pyrazol-5-yl]phenyl}-4-(trifluoromethyl)pyrimidin-2-amine], the IC50 lay within 1000 to 10000 nM.

As for `Cc1cc(Nc2cc(C(F)(F)F)ccn2)nc(-c2cnn(C(=O)OC(C)(C)C)c2)c1` [Example 1.11, tert-butyl 4-(4-methyl-6-{[4-(trifluoromethyl)-pyridin-2-yl]amino}-pyridin-2-yl)-1H-pyrazole-1-carboxylate], the IC50 is at most 100 nM.

Regarding `Cc1cc(Nc2cc(C(F)(F)F)ccn2)nc(-c2cn[nH]c2)c1` [Example 1.12, 4-methyl-6-(1H-pyrazol-4-yl)-N-[4-(trifluoromethyl)pyridin-2-yl]pyridin-2-amine], the IC50 was at most 100 nM.

`Cc1cc(Nc2cc(C(F)(F)F)ccn2)nc(-c2cnn(C)c2)c1` [Example 1.13, 4-methyl-6-(1-methyl-1H-pyrazol-4-yl)-N-[4-(trifluoromethyl)pyridin-2-yl]pyridin-2-amine]: the IC50 is at most 100 nM.

For `Cc1cc(Nc2cc(C(F)(F)F)ccn2)nc(-c2cnn(CCC(C)C)c2)c1` [Example 1.14, 4-methyl-6-[1-(3-methylbutyl)-1H-pyrazol-4-yl]-N-[4-(trifluoromethyl)pyridin-2-yl]pyridin-2-amine], the IC50 was at most 100 nM.

`Cc1cc(Nc2cc(C(F)(F)F)ccn2)nc(-c2cnn3c2CCC3)c1` [Example 1.15, 6-(5,6-dihydro-4H-pyrrolo[1,2-b]pyrazol-3-yl)-4-methyl-N-[4-(trifluoromethyl)pyridin-2-yl]pyridin-2-amine]: the IC50 is at most 100 nM.

Turning to `CCOC(=O)CCn1cc(-c2cc(C)cc(Nc3cc(C(F)(F)F)ccn3)n2)cn1` [Example 1.16, ethyl 3-[4-(4-methyl-6-{[4-(trifluoromethyl)pyridin-2-yl]amino}pyridin-2-yl)-1H-pyrazol-1-yl]propanoate], the IC50 is at most 100 nM.

For `CCOC(=O)CCn1cc(-c2cc(C)cc(Nc3cc(C4CC4)ccn3)n2)cn1` [Example 1.17, ethyl 3-(4-{6-[(4-cyclopropylpyridin-2-yl)amino]-4-methylpyridin-2-yl}-1H-pyrazol-1-yl)propanoate], the IC50 is at most 100 nM.

Consider `Cc1ccnc(Nc2cccc(-c3cnn(CCC(=O)O)c3)n2)c1` [Example 1.18, 3-(4-{6-[(4-methylpyridin-2-yl)amino]pyridin-2-yl}-1H-pyrazol-1-yl)propanoic acid], for which the IC50 is 100 to 1000 nM.

In the case of `O=C(O)CCn1cc(-c2cccc(Nc3cc(C(F)(F)F)ccn3)n2)cn1` [Example 1.19, 3-[4-(6-{[4-(trifluoromethyl)pyridin-2-yl]amino}pyridin-2-yl)-1H-pyrazol-1-yl]propanoic acid], the IC50 is at most 100 nM.

For `Cc1ccnc(Nc2cc(C)cc(-c3cnn(CCC(=O)O)c3)n2)c1` [Example 1.20, 3-(4-{4-methyl-6-[(4-methylpyridin-2-yl)amino]pyridin-2-yl}-1H-pyrazol-1-yl)propanoic acid], the IC50 was in the range of 100 to 1000 nM.

As for `Cc1cc(Nc2cc(C(F)(F)F)ccn2)nc(-c2cnn(CCC(=O)O)c2)c1` [Example 1.21, 3-[4-(4-methyl-6-{[4-(trifluoromethyl)pyridin-2-yl]amino]pyridin-2-yl)-1H-pyrazol-1-yl)propanoic acid], the IC50 is at most 100 nM.

`Cc1cc(Nc2cc(C3CC3)ccn2)nc(-c2cnn(CCC(=O)O)c2)c1` [Example 1.22, 3-(4-{6-[(4-cyclopropylpyridin-2-yl)amino]-4-methylpyridin-2-yl}-1H-pyrazol-1-yl)propanoic acid]: the IC50 was at most 100 nM.

On to `CCOC(=O)CCn1cc(-c2cccc(Nc3cc(C)ccn3)n2)cn1` [Example 1.23], for which the IC50 lay within 100 to 1000 nM.

Regarding `CCOC(=O)CCn1cc(-c2cccc(Nc3cc(C(F)(F)F)ccn3)n2)cn1` [Example 1.24, ethyl 3-[4-(6-{[4-(trifluoromethyl)pyridin-2-yl]amino}pyridin-2-yl)-1H-pyrazol-1-yl]propanoate], the IC50 lay within 100 to 1000 nM.

For `CCOC(=O)CCn1cc(-c2cc(C)cc(Nc3cc(C)c(Cl)cn3)n2)cn1` [Example 1.25, ethyl 3-(4-{6-[(5-chloro-4-methylpyridin-2-yl)amino]-4-methylpyridin-2-yl}-1H-pyrazol-1-yl)propanoate], the IC50 was in the range of 100 to 1000 nM.

Consider `CCOC(=O)CCn1cc(-c2cc(C)cc(Nc3cc(C)ccn3)n2)cn1` [Example 1.26, ethyl 3-(4-{4-methyl-6-[(4-methylpyridin-2-yl)amino]pyridin-2-yl}-1H-pyrazol-1-yl)propanoate], for which the IC50 was in the range of 100 to 1000 nM.

With `Cc1cc(Nc2cc(C)c(Cl)cn2)nc(-c2cnn(CCC(=O)O)c2)c1` [Example 1.27, 3-(4-{6-[(5-chloro-4-methylpyridin-2-yl)amino]-4-methylpyridin-2-yl}-1H-pyrazol-1-yl)propanoic acid], the IC50 lay within 100 to 1000 nM.

As to `Cc1cc(Nc2cc(C(F)(F)F)ccn2)nc(-c2cnn(CC3CNC(=O)O3)c2)c1` (centres unmarked) [Example 1.28, 5-{[4-(4-methyl-6-{[4-(trifluoromethyl)pyridin-2-yl]amino}pyridin-2-yl)-1H-pyrazol-1-yl]methyl}-1,3-oxazolidin-2-one], the IC50 was at most 100 nM.

For the molecule `Cc1cc(Nc2cc(C(F)(F)F)ccn2)nc(-c2cnn(CC3CNC(=O)O3)c2)c1` (centres unmarked) [Example 1.29, 5-{[4-(4-methyl-6-{[4-(trifluoromethyl)pyridin-2-yl]amino}pyridin-2-yl)-1H-pyrazol-1-yl]methyl}-1,3-oxazolidin-2-one], the IC50 was at most 100 nM.

Consider `Cc1cc(Nc2cc(C(F)(F)F)ccn2)nc(-c2cnn(CC(=O)OC(C)(C)C)c2)c1` [Example 1.30, tert-butyl [4-(4-methyl-6-{[4-(trifluoromethyl)pyridin-2-yl]amino}pyridin-2-yl)-1H-pyrazol-1-yl]acetate], for which the IC50 is at most 100 nM.

Regarding `Cc1cc(Nc2cc(C(F)(F)F)ccn2)nc(-c2cnn(CC(=O)O)c2)c1` [Example 1.31, [4-(4-methyl-6-{[4-(trifluoromethyl)pyridin-2-yl]amino}pyridin-2-yl)-1H-pyrazol-1-yl]acetic acid], the IC50 was at most 100 nM.

For `Cc1cc(Nc2nccc(C(F)(F)F)n2)cc(-c2cn[nH]c2)n1` [Example 1.44, N-[2-methyl-6-(1H-pyrazol-4-yl)pyridin-4-yl]-4-(trifluoro-methyl)pyrimidin-2-amine], the IC50 lay in the range of 100 to 1000 nM.

With `Cc1cc(Nc2cc(C(F)(F)F)ccn2)nc(-c2ccnn2C)n1` [Example 1.45, 6-methyl-2-(1-methyl-1H-pyrazol-5-yl)-N-[4-(trifluoro-methyl)pyridin-2-yl]pyrimidin-4-amine], the IC50 was 100 to 1000 nM.

On to `Cc1cc(Nc2cc(C(F)(F)F)ccn2)nc(-c2cc(C(F)(F)F)nn2C)n1` [Example 1.46, 6-methyl-2-[1-methyl-3-(trifluoromethyl)-1H-pyrazol-5-yl]-N-[4-(trifluoromethyl)pyridin-2-yl]pyrimidin-4-amine], for which the IC50 lay in the range of 1000 to 10000 nM.

For `Cc1cc(Nc2nccc(C(C)(F)F)n2)cc(-c2cn[nH]c2)c1` [Example 1.47, 4-(1,1-difluoroethyl)-N-[3-methyl-5-(1H-pyrazol-4-yl)phenyl]pyrimidin-2-amine], the IC50 was at most 100 nM.

On to `Cc1cc(Nc2nccc(C(F)(F)F)n2)cc(-c2cnn(C(C)c3ccc(C(=O)O)cc3)c2)c1` (centres unmarked) [Example 1.48, 4-{1-[4-(3-methyl-5-{[4-(trifluoromethyl)pyrimidin-2-yl]amino}phenyl)-1H-pyrazol-1-yl]ethyl}benzoic acid], for which the IC50 is at most 100 nM.

On to `Cc1cc(Nc2nccc(C(F)(F)F)n2)cc(-c2cnn(C(C)c3ccc(C(=O)O)cc3)c2)c1` (centres unmarked) [Example 1.49, 4-{1-[4-(3-methyl-5-{[4-(trifluoromethyl)pyrimidin-2-yl]amino}phenyl)-1H-pyrazol-1-yl]ethyl}benzoic acid], for which the IC50 is at most 100 nM.

Take `Nc1cc(Nc2nccc(C(F)(F)F)n2)cc(-c2cnn(C3CCC(C(=O)O)CC3)c2)c1` (centres unmarked) [Example 1.50, 4-[4-(3-amino-5-{[4-(trifluoromethyl)pyrimidin-2-yl]amino}phenyl)-1H-pyrazol-1-yl]cyclohexanecarboxylic acid]: the IC50 is at most 100 nM.

For the molecule `Nc1cc(Nc2nccc(C(F)(F)F)n2)cc(-c2cnn(C3CCC(C(=O)O)CC3)c2)c1` (centres unmarked) [Example 1.51, 4-[4-(3-amino-5-{[4-(trifluoromethyl)pyrimidin-2-yl]amino}phenyl)-1H-pyrazol-1-yl]cyclohexanecarboxylic acid], the IC50 is at most 100 nM.

Regarding `CC(=O)Nc1cc(Nc2nccc(C(F)(F)F)n2)cc(-c2cnn(C3CCC(C(=O)O)CC3)c2)c1` (centres unmarked) [Example 1.52, 4-{4-[3-(acetylamino)-5-{[4-(trifluoromethyl)pyrimidin-2-yl]amino}phenyl]-1H-pyrazol-1-yl}cyclohexanecarboxylic acid], the IC50 is at most 100 nM.

For the molecule `CC(=O)Nc1cc(Nc2nccc(C(F)(F)F)n2)cc(-c2cnn(C3CCC(C(=O)O)CC3)c2)c1` (centres unmarked) [Example 1.53, 4-{4-[3-(acetylamino)-5-{[4-(trifluoromethyl)pyrimidin-2-yl]amino}phenyl]-1H-pyrazol-1-yl}cyclohexanecarboxylic acid], the IC50 was at most 100 nM.
